This test concerns Lmna G609G/+ mouse. Nature of the test: Grip strength test. The format is in vivo. The note with it: LMNA G609G/+ mice, 41-week-old, SLC-D011 for 6 weeks. The source says:
Fig. 4 Oral administration of SLC-D011 suppresses premature aging features. A Gross morphology of SLC-D011-treated (D011) mice at 8 weeks old. Body size of treated mouse was apparently larger than that of the untreated control (Con) mouse. B Oral administration of SLC-D011 increases body weights of Lmna^G609G/G609G mice. Compared with untreated control group, body weight of treated mouse was increased by ~35%, *p < 0.05. C Oral administration of SLC-D011 extends the life span of Lmna^G609G/G609G mouse. SLC-D011 in monoolein-based solution was treated by oral gavage (50 mg/kg, daily) from 5 weeks old. […] E Grip test of Lmna^G609G/+ mice at 41-week-old was performed after administration of SLC-D011 for 6 weeks. The test was repeated 10 times for each mouse (n > 4), **p < 0.001. Data are presented as mean ± SD. […] H Anti-aging effects of single treatment of SLC-D011 or lonafarnib were measured in HGPS patients-derived cells (AG11513, AG03199, AG11498, and AG03198, Coriell Cell Repositories). […] No unit is printed with them; the x axis reads Age (weeks). / Panel C: Ave=16.8 / Max=18 are printed beside the dashed curve of the control (Con). […]
For analysis of heart rate, mice were anesthetized with 2.5% isoflurane and monitored using LOGIQ E9 (GE Healthcare). […] Each estimate given corresponded to total reads measured ten times, excluding the minimum and the maximum from each group of animals.

In the case of `CC1(C)Oc2cc3oc(=O)ccc3cc2C[C@@H]1OC/C=C/c1ccccc1` [SLC-D011], the “Grip strength relative to LMNA +/+ (=1)” value worked out at 0.9456. The “Force (%)” value (LMNA +/+ = 100) stood at 94.5577%.

The record behind these values is publication PMC7782499, “Progerinin, an optimized progerin-lamin A binding inhibitor, ameliorates premature senescence phenotypes of Hutchinson-Gilford progeria syndrome” (Communications Biology, 2021).
